Columns and labels:
H. elongata ACCase = experiment: Salt effect on ACCase from the halophile; format: biochemical, Halomonas elongata; details: FIG. 4, compared to the E. coli ACCase
Method: Concentrations of products were measured using the Nanodrop spectophotometer.

E. coli strains = experiment: Growth inhibition of E. coli strains grown in the presence of 3-HP; format: cell-based

## Cl.N [NH4Cl, reference compound]
H. elongata ACCase
  effect of salt on H. elongata ACCase: less affected

## O=C(O)CCO [3-HP, 3-hydroxypropionic acid]
E. coli strains
  3-HP level at which growth inhibition has been demonstrated: ≥ 20 g/L

## N.O=C(O)CCO [NH4-3-HP]
H. elongata ACCase
  effect of salt on H. elongata ACCase: less affected

Reference: US10047383B2, “Bioproduction of chemicals” (Cargill, Incorporated, priority 2013, dated 2018)
